Where “and” joins values, the source holds several entries; their conditions need not be identical. Identical values can stand only once.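 Test compounds were applied to cells in 96-well plates for 48 hours at 5 doses. Here, GI50 denotes the concentration required for 50% inhibition of growth. The concentration for full growth arrest is given as TGI.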
How the values were obtained:
Test in all cases: NCI anticancer screen, dose series, 48 h
SK-MEL-2 melanoma = system: SK-MEL-2 melanoma
EKVX NSCLC = system: EKVX NSCLC
MCF7 breast = system: MCF7 breast
COLO 205 colon = system: COLO 205 colon
HOP-92 NSCLC = system: HOP-92 NSCLC
HCC-2998 colon = system: HCC-2998 colon
HCT-116 colon = system: HCT-116 colon
RPMI-8226 leukemia = system: RPMI-8226 leukemia
MALME-3M melanoma = system: MALME-3M melanoma
SR leukemia = system: SR leukemia

| Compound | GI50 (SK-MEL-2 melanoma) | TGI (SK-MEL-2 melanoma) | GI50 (EKVX NSCLC) | TGI (EKVX NSCLC) | GI50 (MCF7 breast) | TGI (MCF7 breast) | GI50 (COLO 205 colon) | TGI (COLO 205 colon) | GI50 (HOP-92 NSCLC) | TGI (HOP-92 NSCLC) | GI50 (HCC-2998 colon) | TGI (HCC-2998 colon) | GI50 (HCT-116 colon) | TGI (HCT-116 colon) | GI50 (RPMI-8226 leukemia) | TGI (RPMI-8226 leukemia) | GI50 (MALME-3M melanoma) | TGI (MALME-3M melanoma) | GI50 (SR leukemia) | TGI (SR leukemia) [µM] |
| --- | --- | --- | --- | --- | --- | --- | --- | --- | --- | --- | --- | --- | --- | --- | --- | --- | --- | --- | --- | --- |
| CN1C(=O)C(N=Nc2ccc([N+](=O)[O-])cc2)SC1=S (centres undefined) | 8.98 µM and 5.29 µM | 37.8 µM and 42.5 µM | 2.82 µM and 8.54 µM | 28 µM and 96.9 µM | 6.1 µM and 16.6 µM | > 100 µM | 4 µM and 10 µM | 18 µM and 23 µM | 1.71 µM | 12.3 µM | 3.21 µM and 6.71 µM | 48.2 µM and 49.6 µM | 3.65 µM and 6.79 µM | 29 µM and 66.3 µM | 2.62 µM and 2.09 µM | 52.4 µM and 18 µM | 3.26 µM and 18.5 µM | 19.5 µM and > 100 µM | 2.66 µM and 4.47 µM | > 100 |
| Cn1cc(-c2csc(-c3ccccc3)n2)c2cccnc21 | 18.5 µM | 42.3 µM | 5.2 µM | 35.2 µM | 12.6 µM | 33.8 µM | 14 µM | 26.9 µM | 1.81 µM | 15.4 µM | 16.7 µM | 31.1 µM | 13.8 µM | 26.7 µM | 14.3 µM | 98 µM | 16.4 µM | 42.6 µM | 9.24 µM | 62.4 |
| CC[C@]12C=CCN3CC[C@@]4(c5ccc(OC)cc5N(C)[C@H]4[C@@](O)(C(=O)OC)[C@@H]1OC(=O)CCC(=O)O[C@H]1CC[C@H]4[C@@H]5CCC6=CC(=O)CC[C@@H]6[C@H]5CC[C@]14C)[C@@H]32 | 1.24 µM | 2.85 µM | 1.7 µM | > 50 µM | 1.52 µM | > 50 µM | 0.941 µM | 1.94 µM | 1.07 µM | 4.08 µM | 1.98 µM | > 50 µM | 1.55 µM | > 50 µM | 1.07 µM | 3.11 µM | 1.64 µM | 21.1 µM | 1.52 µM | > 50 |
| Cc1c(O)cccc1C(=O)N[C@@H](CSc1ccccc1)[C@H](O)CN1C[C@H]2CCCC[C@H]2C[C@H]1C(=O)NC(C)(C)C | 5.63 µM and 5.26 µM | > 100 µM and 25.4 µM | 4.86 µM and 6.92 µM | 38 µM and > 43.4 µM | 6.22 µM and 3.9 µM | 24.4 µM and 15.7 µM | 2.24 µM and 4.05 µM | 6.03 µM | 2.47 µM and 6.25 µM | 7.62 µM and 25.2 µM | 3.6 µM and 4.97 µM | 10.5 µM and 13.6 µM | 4.27 µM and 5.97 µM | 16 µM and 17.9 µM | 2.23 µM and 2.01 µM | 4.69 µM and 7.21 µM | 2.13 µM and 7.03 µM | 8.41 µM and 18.6 µM | 2.21 µM | 5.48 |
| O=C(O)c1ccc(CSc2nc3ccccc3[nH]2)cc1 | > 100 µM | > 100 µM | > 100 µM | > 100 µM | > 100 µM | > 100 µM | > 100 µM | > 100 µM | > 100 µM | > 100 µM | > 100 µM | > 100 µM | > 100 µM | > 100 µM | > 100 µM | > 100 µM | > 100 µM | > 100 µM | > 100 µM | > 100 |
| CC(C)(C)N1CC1CNC(=O)C(=O)NCC1CN1C(C)(C)C (centres undefined) | – | 10.2 µM | – | > 31.1 µM | – | > 100 µM | – | 8.5 µM | – | 33.3 µM | – | 14.8 µM | – | 10.8 µM | – | > 18.3 µM | – | 8.68 µM | – | 13.3 |
| O=C(/C=C(/C=C/c1cccc2[nH]ccc12)OB(F)F)/C=C/c1cccc2[nH]ccc12 | 2.09 µM | 5.63 µM | 1.46 µM | 5.54 µM | 0.436 µM | 9.45 µM | 0.771 µM | 3.15 µM | 1.86 µM | 5.15 µM | 1.91 µM | 3.63 µM | 0.277 µM | 0.951 µM | 0.354 µM | 2.55 µM | 1.01 µM | 8.56 µM | 0.46 µM | > 100 |
| CSC1=CC(=O)c2ccccc2C1=O | 11.6 µM | 33.7 µM | 15.5 µM | 34.9 µM | 1.72 µM | 3.65 µM | 1.99 µM | 3.65 µM | 0.811 µM | 2.19 µM | 15.3 µM | 29.9 µM | 1.52 µM | 2.92 µM | 2.61 µM | 7.96 µM | 1.92 µM | 3.54 µM | 3.11 µM | 8.98 |
| COc1cccc(C(=O)NNc2nc(Cl)nc(N3CCN(C(c4ccccc4)c4ccccc4)CC3)n2)c1 | 2.14 µM | 5.31 µM | 5.76 µM | 20 µM | 82.2 µM | > 100 µM | 3.67 µM | 14.3 µM | 1.57 µM | 3.82 µM | 1.77 µM | 3.43 µM | 1.77 µM | 3.73 µM | > 100 µM | > 100 µM | 1.7 µM | 3.78 µM | 0.852 µM | 4.26 |
| O=C(Cc1cc(O)ccc1O)NO | > 100 µM | > 100 µM | > 100 µM | > 100 µM | 16.5 µM | 34.9 µM | 18.6 µM | 36.3 µM | 21.3 µM | 59.6 µM | > 100 µM | > 100 µM | 18 µM | 32.4 µM | 19 µM | 40 µM | 29.1 µM | > 100 µM | 20.5 µM | 52.6 |
| COC(=O)C1C(C(=O)O)C2(c3ccccc3)C(=O)C1(c1ccccc1)C(c1ccc(OC)cc1)=C2c1ccc(OC)cc1 (centres undefined) | 20.5 µM | 44 µM | 18.6 µM | 52.7 µM | 20.3 µM | 38.9 µM | 16.4 µM | 38.8 µM | 4.87 µM | 28.4 µM | 13.9 µM | 27.8 µM | 17.3 µM | 33.6 µM | 18.2 µM | 48.5 µM | 29.8 µM | 75.7 µM | 27.2 µM | 63 |
| CCCCCCCCCCCCCCCC(=O)NS(=O)(=O)OC[C@H]1O[C@@H](n2cnc3c(N)ncnc32)[C@H](O)[C@@H]1O | 0.588 µM | 2.83 µM | 0.271 µM | 1.74 µM | 0.509 µM | 9.77 µM | < 0.0157 µM | < 0.0238 µM | < 0.024 µM | – | < 0.0192 µM | < 0.038 µM | 0.0719 µM | 1.21 µM | 3.44 µM | 14.2 µM | 0.69 µM | 2.22 µM | < 0.021 µM | 4.38 |
